Measurements: PubChem BioAssay AID1963442 (Molecular Pharmacology Branch, DTP, NCI, 2024)
Where “and” joins values, the source holds several entries; their conditions need not be identical. Equal values may be shown once.

System: MPNST complex spheroid with HUVEC/MSC, growth, % test/control
Test: Anticancer human tumor MPNST cell line growth inhibition [Asc];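 note: compounds left on spheroids for seven days before reading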
Details: for viability, T/C: stronger effect = lower value
Experimental: Multicellular complex tumor spheroid response to apoptosis pathway targeting inhibitors Alrizomadlin, Pelcitoclax, and Dasminapant in combination with a variety of drugs and investigational agents in selected tumor cell lines
The MDM2 inhibitor alrizomadlin, the Bcl-2/Bcl-xL inhibitor pelcitoclax, and the IAPs inhibitor dasminapant were evaluated both individually and in combination with standard of care and investigational anticancer small molecules within a complex spheroid model of solid tumors. . Complex spheroids include a stromal component modeled by human endothelial cells (HUVEC) and fibroblasts modeled by human mesenchymal stem cells (MSCs). The concentration ranges selected for each drug and investigational agent were based upon clinically achievable concentrations if the clinical Cmax of the agent was known.
Compounds. The drugs and investigational agents: alrizomadlin (APG-115; NSC831270), pelcitoclax (APG-1252; NSC835773), dasminapant (APG-1387;NSC834197), TAK-243 (NSC785004), copanlisib (NSC809693), olaparib (NSC753686), talazoparib (NSC767125), cobimetinib (NSC 768068), eltanexor (KPT-8602, NSC 794443), abemaciclib (NSC 768073), sotorasib (NSC818433), adagrasib (NSC 831453), MRTX-1133 (NSC 836407), Iadademestat (ORY1001, NSC 806812), and RMC-4630 (NSC839698), were obtained from the NCI Developmental Therapeutics Program Chemical Repository. The FDA-approved anticancer drug set is available from the Developmental Therapeutics Program at https://dtp.cancer.gov/organization/dscb/obtaining/available plates.htm. […] The stock solutions were prepared in dimethyl sulfoxide (DMSO, Sigma-Aldrich, St. Louis, MO, cat. D2650) at 800-fold the tested concentration and stored at -70 degrees C prior to their use. All drugs and investigational agents were tested over a range starting from a high concentration at or near the clinical Cmax and decreasing in half-log increments. If the clinical Cmax for an agent had not been determined, the highest concentration tested was 10 microM.
The patient-derived cancer (PDC) cell lines include five colon adenocarcinomas: 186277-243-T-J2-PDC, 616215-338-R-J1-PDC, 439559-082-T-J2-PDC, 463943-066-T-J2-PDC, and 519858-162-T-J1-PDC; three pancreatic carcinomas: 323965-272-R-J2-PDC, 521955-158-R6-J3-PDC, and 521955-158-R2-J5-PDC; two uterine sarcomas: 327498-152-R-J2-PDC and 993429-296-R-J1-PDC; two rhabdomyosarcomas: 755483-174-R-J1-PDC and 772245-204-R-J1-PDC; two soft tissue sarcomas: 126254-015-R-J1-PDC and 494315-158-R-J1-PDC; two malignant fibrous histiocytomas: 317291-083-R-J1-PDC and 596521-263-R-J1-PDC; two breast carcinomas: 171881-019-R-J1-PDC and 885512-296-R-J2-PDC; and one ovarian carcinoma: 6556581-035-R-J-PDC were obtained from the NCI PDMR, (https://pdmr.cancer.gov). The established cell lines HSSY-2 synovial sarcoma (RRID:CVCL 8719), SYO-1 synovial sarcoma (RRID:CVCL_7146), MPNST malignant peripheral neural sheath tumor were obtained from the Sloan Kettering Institute. The following established cell lines were purchased from the American Type Culture Collection (ATCC, Manassas, VA), Sor the received from the NCI repository:, PANC-1 pancreatic carcinoma (CRL-1469, RRID:CVCL_0480), OVCAR-5 ovarian carcinoma (RRID:CVCL_1628), OVCAR-8 ovarian carcinoma (RRID:CVCL_1629), , MCF-7 breast carcinoma (CRL-12584, RRID:CVCL_0031), MDA-MB-231 breast carcinoma (CRL-12532, RRID:CVCL_0062), NCI-H1876 small cell lung carcinoma (CRL-5902, RRID:CVCL_1503), NCI-H510A small cell lung carcinoma (HTB-184, RRID:CVCL_1565), NCI-H1417 (CRL-5869, RRID:CVCL_1469), and NCI-H196 small cell lung carcinoma (CRL-5823, RRID:CVCL_1509). Dr. Peter Houghton (Greehey Children's Cancer Research Institute, University of Texas Health Science Center, San Antonio, TX) provided Rh-18 rhabdomyosarcoma (RRID:CVCL_1659). Pooled donor human umbilical vein endothelial cells (HUVEC, Lonza, cat. CC-2519) and human mesenchymal stem cells (hMSC, Lonza, cat. PT-2501) were purchased from Lonza (Walkersville, MD).
Cell Culture. […]

[1] = compound alone, run of 10/11/2022

| SMILES | viability, T/C (compound 0.0316 µM) | viability, T/C (compound 0.1 µM) | viability, T/C (compound 0.316 µM) | viability, T/C (compound 1 µM) | IC50 (curve of compound) | also measured |
| --- | --- | --- | --- | --- | --- | --- |
| C#Cc1c(F)ccc2cc(O)cc(-c3ncc4c(N5CC6CCC(C5)N6)nc(OCC56CCCN5CC(F)C6)nc4c3F)c12 (centres undefined) | 76.6% and 93.8% and 88.8% | 87% and 113% and 69.2% | 74.9% and 107% and 83.5% | 61.2% and 94.7% and 70.7% | > 10000 nM | viability, T/C (compound 3.16 µM): 88% and 93.3% and 87.2%; viability, T/C (compound 10 µM): 50% and 97.8% and 110% |
| C=C(F)C(=O)N1CCN(c2nc(OCC3CCCN3C)nc3c2CCN(c2cccc4cccc(Cl)c24)C3)CC1CC#N (centres undefined) | 65.6% and 93.2% and 99.3% | 75% and 68.3% and 86.5% | 90.8% and 73% and 75.3% | 85% and 68.2% and 94.8% | 2990 nM and > 10000 nM | viability, T/C (compound 3.16 µM): 48.5% and 60.2% and 82.2% |
| C=CC(=O)N1CCN(c2nc(=O)n(-c3c(C)ccnc3C(C)C)c3nc(-c4c(O)cccc4F)c(F)cc23)C(C)C1 (centres undefined) | 99.3% and 91.7% and 80.4% | 81% and 76.5% and 90.9% | 99% and 90.2% and 92.3% | 87.4% and 78.7% and 108% | > 10000 nM | viability, T/C (compound 3.16 µM): 104% and 121% (2×); viability, T/C (compound 10 µM): 101% and 143% and 119% |
| CCN1C(C(=O)NC23CCC(C(=O)O)(CC2)CC3)C(c2cccc(Cl)c2F)C2(C(=O)Nc3cc(Cl)ccc32)C12CCCCC2 (centres undefined) |  |  |  |  | 1810 nM and > 3000 nM | viability, T/C (compound 0.00949 µM): 86.6% and 74.5%; IC50 [1]: > 3000 nM |
| CCN1CCN(Cc2ccc(Nc3ncc(F)c(-c4cc(F)c5nc(C)n(C(C)C)c5c4)n3)nc2)CC1 | 92.8% and 78.2% and 78.8% | 70.1% and 54% and 60.7% | 84.9% and 63% and 78.3% | 92.1% and 65.1% and 69% | > 1000 nM | viability, T/C (compound 0.00316 µM): 73% and 74.2% and 85.2%; viability, T/C (compound 0.01 µM): 91.6% and 72.8% and 69.6% |
| CNC(C)C(=O)NC1CN(S(=O)(=O)c2cccc(S(=O)(=O)N3CCC4CCC(C(=O)NC(c5ccccc5)c5ccccc5)N4C(=O)C(NC(=O)C(C)NC)C3)c2)CCC2CCC(C(=O)NC(c3ccccc3)c3ccccc3)N2C1=O (centres undefined) |  |  |  |  | > 1000 nM |  |
| COc1c(OCCCN2CCOCC2)ccc2c3n(c(=NC(=O)c4cnc(N)nc4)nc12)CCN3 | 70.7% and 52.5% and 38.8% | 39.8% and 39.5% and 13.7% | 31.4% and 24.9% and 9.45% | 24% and 18.9% and 5.21% | 68.7 nM and 49.5 nM and 11.5 nM | viability, T/C (compound 0.00316 µM): 84.8% and 70.3% and 54.3%; viability, T/C (compound 0.01 µM): 97% and 81% and 50.6% |
| Cc1c(S(C)(=O)=O)c(-c2cc(F)cc(N3CCN(c4ccc(NS(=O)(=O)c5ccc(NC(CCN6CCC(C(=O)OCCCP(=O)(O)O)CC6)CSc6ccccc6)c(S(=O)(=O)C(F)(F)F)c5)cc4)CC3)c2)c(-c2ccc(Cl)cc2)n1C(C)C (centres undefined) |  |  |  |  |  | IC50 [1]: > 10000 nM |
| Cc1nc(N2CCC3(CC2)COC(C)C3N)c(CO)nc1Sc1ccnc(N)c1Cl (centres undefined) |  |  |  |  | 964 nM and > 3000 nM | viability, T/C (compound 0.00949 µM): 64.8% and 95.2% and 81.6%; viability, T/C (compound 0.03 µM): 69.3% and 115% and 93.2%; viability, T/C (compound 0.0949 µM): 81% and 125% and 89.5%; viability, T/C (compound 0.3 µM): 48.4% and 109% and 92%; viability, T/C (compound 0.949 µM): 55.7% and 115% and 93.5%; viability, T/C (compound 3 µM): 18.5% and 86.6% and 80.5% |
| Cn1ncnc1[C@H]1c2n[nH]c(=O)c3cc(F)cc(c23)N[C@@H]1c1ccc(F)cc1 | 70% and 42.6% and 64.6% | 75.9% and 56.8% and 44% |  |  | > 100 nM and 30.7 nM | viability, T/C (compound 0.000316 µM): 96.5% and 77% and 100%; viability, T/C (compound 0.001 µM): 85.1% and 66.4% and 78.8%; viability, T/C (compound 0.00316 µM): 81.7% and 67.3% and 52.8%; viability, T/C (compound 0.01 µM): 80.5% and 61.2% and 65.7% |
| NC(=O)C(=Cn1cnc(-c2cc(C(F)(F)F)cc(C(F)(F)F)c2)n1)c1cncnc1 |  |  |  |  |  | viability, T/C (compound 0.000949 µM): 66.2% and 56.3% and 21.6%; viability, T/C (compound 0.003 µM): 90% and 89% and 18%; viability, T/C (compound 0.00949 µM): 81.3% and 73.5% and 18.6%; viability, T/C (compound 0.03 µM): 67.2% and 38.9% and 20.1%; viability, T/C (compound 0.0949 µM): 61.8% and 57.6% and 17.8%; viability, T/C (compound 0.3 µM): 53.9% and 40.3% and 22.3% |
